Data: patent US20240092761A1, “QUINAZOLINE COMPOUNDS AND METHODS OF USE” (IAMBIC THERAPEUTICS, INC., priority 2022, published 2024)

Tests used:
[1] = target: T1, CDK4/Cyclin D1 (Homo sapiens (Human), UniProt P11802); assay: CDK4/Cyclin D1 Mobility Shift Assay (MSA); format: biochemical; details: 0.2 mM ATP, read-out: CDK4/ CyclinD1 MSA IC50
Excerpt: CDK4/Cyclin D1 Mobility Shift Assay (MSA)
The purpose CDK4/Cyclin D1 assay is to evaluate the inhibition (% inhibition and IC50 values) in the presence of small molecule inhibitors by using a fluorescence based microfluidic mobility shift assay. CDK4/Cyclin D1 catalyzes the production of ADP from ATP that accompanies the phosphoryl transfer to the substrate peptide 5-FAM-Dyrktide (5-FAM-RRRFRPASPLRGPPK) (Perkin Elmer Peptide 34). The mobility shift assay (MSA) electrophoretically separates the fluorescently labelled peptides (substrate and phosphorylated product) following the kinase reaction. Both substrate and product are measured, and the ratio of these values is used to generate % conversion of substrate to product by the LabChip EZ Reader. Typical reaction solutions contained 2% DMSO (+/−inhibitor), 10 mM MgCl2, 1 mM EGTA, 0.05% BSA, 2 mM DTT, 0.2 mM ATP, 0.01% Brig-35, 1.5 uM 5-FAM-Dyrktide, 2.5 nM CDK4/Cyclin D1 in 50 mM HEPES buffer at pH 7.5. The reaction was initiated with the addition of substrate solution, following a 30-minute pre-incubation of enzyme and inhibitor at 22° C. in the reaction mix. The reaction was stopped after 180 minutes by the addition of 75 uL of 500 mM EDTA and measured on a Perkin Elmer EZ reader instrument. IC50 determinations were made from a plot of the fractional velocity as a function of inhibitor concentration fit to the 4 parameters IC50 equation.

[2] = target: CDK6/Cyclin D3 (Homo sapiens (Human), UniProt Q00534); assay: CDK6/Cyclin D3 ADP-Glo Kinase Assay; format: biochemical; details: 100 uM ATP, read-out: CDK6/ CyclinD3 IC50
Chain of CDK6/Cyclin D3 (Q00534 whole entry): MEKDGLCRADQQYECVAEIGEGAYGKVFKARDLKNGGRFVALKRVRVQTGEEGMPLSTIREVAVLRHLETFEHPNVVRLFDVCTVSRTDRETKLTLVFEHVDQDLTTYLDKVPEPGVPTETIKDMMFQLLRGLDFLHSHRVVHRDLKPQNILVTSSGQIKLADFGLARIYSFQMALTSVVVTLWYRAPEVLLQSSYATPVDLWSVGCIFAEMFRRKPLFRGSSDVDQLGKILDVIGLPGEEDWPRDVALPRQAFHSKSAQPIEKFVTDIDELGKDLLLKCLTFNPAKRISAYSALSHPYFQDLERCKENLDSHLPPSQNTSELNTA
Chain of CDK6/Cyclin D3 (P30281 whole entry partner): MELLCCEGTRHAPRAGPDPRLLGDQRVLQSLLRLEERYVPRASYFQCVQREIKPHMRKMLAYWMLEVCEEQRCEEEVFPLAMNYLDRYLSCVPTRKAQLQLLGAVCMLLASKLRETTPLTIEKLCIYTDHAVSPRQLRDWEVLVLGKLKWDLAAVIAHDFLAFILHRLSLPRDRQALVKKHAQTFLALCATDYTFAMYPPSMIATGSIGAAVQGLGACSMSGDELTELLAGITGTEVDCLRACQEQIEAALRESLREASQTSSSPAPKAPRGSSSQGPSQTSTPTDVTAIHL
Summary of the method: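 Recombinant human CDK6/Cyclin D3 pre-incubated 30 min with inhibitor at room temperature, then reaction started with ATP/substrate and run 90 min at room temperature. ADP formed detected by ADP-Glo luminescence; IC50 from a 4-parameter fit of fractional velocity versus inhibitor concentration.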

[3] = target: CDK2/Cyclin E1 full length (Homo sapiens (Human), UniProt P24941); assay: CDK2/Cyclin E1 Full Length ADP-Glo Kinase Assay; format: biochemical; details: 20 uM ATP, read-out: CDK2/ CyclinE1 IC50
Summary of the method: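 Full-length human CDK2/Cyclin E1 (0.328 nM) pre-incubated 30 min with inhibitor at RT, then reacted 90 min at RT with 20 uM ATP (Km 64.78 uM) and 0.75 uM substrate in pH 7.5 HEPES, 2% DMSO. ADP measured by ADP-Glo luminescence; IC50 from 4-parameter fit of fractional velocity.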

[4] = target: CDK1/Cyclin B1 (Homo sapiens (Human), UniProt P06493); assay: CDK1/Cyclin B1 ADP-Glo Kinase Assay; format: biochemical; details: 80 uM ATP
Chain of CDK1/Cyclin B1 (P06493 whole entry): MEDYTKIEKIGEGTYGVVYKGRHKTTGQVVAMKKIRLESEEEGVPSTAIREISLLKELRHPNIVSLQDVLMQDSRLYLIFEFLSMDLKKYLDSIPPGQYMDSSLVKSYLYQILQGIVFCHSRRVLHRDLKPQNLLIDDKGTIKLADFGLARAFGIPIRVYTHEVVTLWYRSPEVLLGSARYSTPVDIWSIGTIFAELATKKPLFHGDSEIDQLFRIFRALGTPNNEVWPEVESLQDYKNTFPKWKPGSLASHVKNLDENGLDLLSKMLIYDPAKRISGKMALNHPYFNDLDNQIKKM
Chain of CDK1/Cyclin B1 (P14635 whole entry partner): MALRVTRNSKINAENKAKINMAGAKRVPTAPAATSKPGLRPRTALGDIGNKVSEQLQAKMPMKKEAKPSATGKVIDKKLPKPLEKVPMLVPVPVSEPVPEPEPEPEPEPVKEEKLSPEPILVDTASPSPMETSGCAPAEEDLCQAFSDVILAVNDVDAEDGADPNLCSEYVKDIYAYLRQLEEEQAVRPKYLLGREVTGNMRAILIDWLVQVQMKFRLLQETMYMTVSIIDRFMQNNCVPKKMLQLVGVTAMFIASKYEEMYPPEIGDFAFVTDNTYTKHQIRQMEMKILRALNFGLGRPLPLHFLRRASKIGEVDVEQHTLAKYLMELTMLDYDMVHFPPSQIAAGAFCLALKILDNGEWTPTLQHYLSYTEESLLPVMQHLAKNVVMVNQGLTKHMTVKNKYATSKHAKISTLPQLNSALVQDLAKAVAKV
Summary of the method: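 CDK1/cyclin B1 (4.917 nM) preincubated 30 min with inhibitor (2% DMSO), then 80 µM ATP (Km 78.6 µM) and 0.75 µM substrate added; 90 min, room temperature, pH 7.5. ADP measured by ADP-Glo luminescence; IC50 from 4-parameter fit.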

[5] = test system: MCF-7 cells; assay: Cell Growth Inhibition, MCF-7 (CellTiterGlo, 6 days); format: cell-based; details: Homo sapiens, MCF7, 144 h; MCF-7, 6-day treatment, CellTiterGlo 2.0
Summary of the method: (§1)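 MCF-7 and OVCAR-3 cells (RPMI, 10% FBS) were seeded at 500 cells/well onto compound, typically 10–10,000 nM in half-log dilutions. Growth proceeded 6 days at 37 °C, then CellTiterGlo luminescence was read. % inhibition was taken versus control, and IC50 came from a four-parameter variable-slope fit.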

[6] = test system: OVCAR-3 cells; assay: Cell Growth Inhibition, OVCAR-3 (CellTiterGlo, 6 days); format: cell-based; details: Homo sapiens, 144 h; OVCAR-3, 6-day treatment, CellTiterGlo 2.0
Summary of the method: as §1

[7] = target: T1, CDK4/Cyclin D1; assay: CDK4/Cyclin D1 CHEF Assay (AQT0258 peptide); format: biochemical; details: 200 uM ATP, read-out: CDK4/ CyclinD1 AQT IC50
Summary of the method: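 CDK4/Cyclin D1 (2.5 nM) phosphorylating 10 uM Sox-labelled peptide AQT0258 with 200 uM ATP (Km 195.2 uM), 10 mM MgCl2, 2% DMSO, 54 mM HEPES pH 7.5. Enzyme and inhibitor pre-incubated 30 min, reaction 3 hrs at 22° C.; CHEF fluorescence (ex 360/em 485 nm), IC50 from fractional velocity, 4-parameter fit.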

T1 sequence (P11802 whole entry): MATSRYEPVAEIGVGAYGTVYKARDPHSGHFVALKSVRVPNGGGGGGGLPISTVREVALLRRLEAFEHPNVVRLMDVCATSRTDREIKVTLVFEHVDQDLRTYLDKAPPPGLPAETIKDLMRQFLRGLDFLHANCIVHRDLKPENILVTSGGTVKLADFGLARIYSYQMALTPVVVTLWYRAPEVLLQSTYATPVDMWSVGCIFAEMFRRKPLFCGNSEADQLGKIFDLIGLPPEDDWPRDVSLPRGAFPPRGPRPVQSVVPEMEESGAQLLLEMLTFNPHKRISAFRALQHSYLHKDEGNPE
T1 sequence (P24385 whole entry partner): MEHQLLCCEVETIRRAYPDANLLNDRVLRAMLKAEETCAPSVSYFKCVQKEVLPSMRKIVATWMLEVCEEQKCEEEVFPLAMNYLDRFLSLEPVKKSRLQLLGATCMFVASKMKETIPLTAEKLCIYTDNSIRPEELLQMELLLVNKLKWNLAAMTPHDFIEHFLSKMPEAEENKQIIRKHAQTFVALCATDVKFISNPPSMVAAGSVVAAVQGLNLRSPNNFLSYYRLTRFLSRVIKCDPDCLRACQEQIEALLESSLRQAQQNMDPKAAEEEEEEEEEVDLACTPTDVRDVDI

Compound | IC50 [1] [nM] | IC50 [2] [nM] | IC50 [3] [nM] | IC50 [4] [nM] | IC50 [5] [nM] | IC50 [6] [nM] | IC50 [7] [nM]
CS(=O)(=O)N1CCC(Nc2ncc3cccc(N4CCN(C5CC5)CC4)c3n2)CC1 [Example 13, 8-(4-cyclopropylpiperazin-1-yl)-N-(1-(methylsulfonyl)piperidin-4-yl)quinazolin-2-amine] | 200 to 500 | 500 to 2000 | < 200 | > 2000 |  |  | 
N-(1-(methyl sulfonyl) piperidin-4-yl)-8-(2,6-diazaspiro[3.4]octan-2-yl) quinazolin-2-amine [Example 32] | 200 to 500 | 500 to 2000 | < 200 | > 2000 |  |  | 
CCN1CC2(C1)CN(c1ccc(Nc3ncc4cccc(N5CC6(C5)CC(F)(F)C6)c4n3)nc1)C2 [Example 49, 8-(6,6-difluoro-2-azaspiro[3.3]heptan-2-yl)-N-(5-(6-ethyl-2,6-diazaspiro[3.3]heptan-2-yl)pyridin-2-yl)quinazolin-2-amine] | < 200 | 200 to 500 | > 2000 | > 2000 |  |  | 
CS(=O)(=O)N1CCC(Nc2ncc3cccc(N4CCN(CC5CC5)CC4)c3n2)CC1 [Example 17, 8-(4-(cyclopropylmethyl)piperazin-1-yl)-N-(1-(methylsulfonyl)piperidin-4-yl)quinazolin-2-amine] | 200 to 500 | 500 to 2000 | < 200 | > 2000 |  |  | 
CS(=O)(=O)N1CCC(Nc2ncc3cccc(N4CCOC5(CC5)C4)c3n2)CC1 [Example 9, N-(1-(methylsulfonyl)piperidin-4-yl)-8-(4-oxa-7-azaspiro[2.5]octan-7-yl)quinazolin-2-amine] | 500 to 2000 | 200 to 500 | 200 to 500 | > 2000 |  |  | 
CC(=O)N1CC2(CCN(c3cccc4cnc(NC5CCN(S(C)(=O)=O)CC5)nc34)C2)C1 [Example 5, 1-(6-(2-((1-(methylsulfonyl)piperidin-4-yl)amino)quinazolin-8-yl)-2,6-diazaspiro[3.4]octan-2-yl)ethan-1-one] | 500 to 2000 | 500 to 2000 | 200 to 500 | > 2000 |  |  | 
CS(=O)(=O)N1CCC(Nc2ncc3cccc(N4CCCC5(CCOC5)C4)c3n2)CC1 (stereo not shown) [Example 7, N-(1-(methylsulfonyl)piperidin-4-yl)-8-(2-oxa-7-azaspiro[4.5]decan-7-yl)quinazolin-2-amine] | 200 to 500 | 500 to 2000 | < 200 | > 2000 |  |  | 
CS(=O)(=O)N1CCC(Nc2ncc3cccc(N4CC5CC(C4)O5)c3n2)CC1 [Example 30, 8-(6-oxa-3-azabicyclo[3.1.1]heptan-3-yl)-N-(1-(methylsulfonyl)piperidin-4-yl)quinazolin-2-amine] | < 200 | 200 to 500 | < 200 | 500 to 2000 |  |  | 
CC(=O)N1CCC2(CC1)CCN(c1cccc3cnc(NC4CCN(S(C)(=O)=O)CC4)nc13)C2 [Example 25, 1-(2-(2-((1-(methylsulfonyl)piperidin-4-yl)amino)quinazolin-8-yl)-2,8-diazaspiro[4.5]decan-8-yl)ethan-1-one] | < 200 | 200 to 500 | < 200 | > 2000 |  |  | 
CN1CCN(C2CCN(c3cccc4cnc(NC5CCN(S(C)(=O)=O)CC5)nc34)C2)CC1 (stereo not shown) [Example 29, 8-(3-(4-methylpiperazin-1-yl)pyrrolidin-1-yl)-N-(1-(methylsulfonyl)piperidin-4-yl)quinazolin-2-amine] | 500 to 2000 | > 2000 | 200 to 500 | > 2000 |  |  | 
CS(=O)(=O)N1CCC(Nc2ncc3cccc(N4CCN(C5COC5)CC4)c3n2)CC1 [Example 11, N-(1-(methylsulfonyl)piperidin-4-yl)-8-(4-(oxetan-3-yl)piperazin-1-yl)quinazolin-2-amine] | 500 to 2000 | > 2000 | 500 to 2000 | > 2000 |  |  | 
CS(=O)(=O)N1CCC(Nc2ncc3cccc(N4CCC5(CCC(F)(F)C5)C4)c3n2)CC1 (stereo not shown) [Example 34, 8-(7,7-difluoro-2-azaspiro[4.4]nonan-2-yl)-N-(1-(methylsulfonyl)piperidin-4-yl)quinazolin-2-amine] | < 200 | 200 to 500 | < 200 | 500 to 2000 |  |  | 

The remaining lines, values ahead:

IC50 [1] [nM] | IC50 [2] [nM] | IC50 [3] [nM] | IC50 [4] [nM] | IC50 [5] [nM] | IC50 [6] [nM] | IC50 [7] [nM] | Compound
< 200 | < 200 | < 200 | 500 to 2000 |  |  |  | CS(=O)(=O)N1CCC(Nc2ncc3cccc(N4CCC5(COC5)C4)c3n2)CC1 [Example 22, N-(1-(methylsulfonyl)piperidin-4-yl)-8-(2-oxa-6-azaspiro[3.4]octan-6-yl)quinazolin-2-amine]
< 200 | < 200 | < 200 | > 2000 |  |  |  | CS(=O)(=O)N1CCC(Nc2ncc3cccc(N4CCC5(CCC(F)(F)CC5)C4)c3n2)CC1 [Example 28, 8-(8,8-difluoro-2-azaspiro[4.5]decan-2-yl)-N-(1-(methylsulfonyl)piperidin-4-yl)quinazolin-2-amine]
< 200 | < 200 | < 200 | > 2000 |  |  |  | CS(=O)(=O)N1CCC(Nc2ncc3cccc(N4CCC5(CCN(S(C)(=O)=O)C5)C4)c3n2)CC1 (stereo not shown) [Example 23, 8-(7-(methylsulfonyl)-2,7-diazaspiro[4.4]nonan-2-yl)-N-(1-(methylsulfonyl)piperidin-4-yl)quinazolin-2-amine]
< 200 | < 200 | < 200 | 500 to 2000 |  |  |  | CS(=O)(=O)N1CCC(Nc2ncc3cccc(N4CCCC4)c3n2)CC1 [Example 2, N-(1-(methylsulfonyl)piperidin-4-yl)-8-(pyrrolidin-1-yl)quinazolin-2-amine]
 | < 200 | < 200 | > 2000 | 500 to 2000 | 500 to 2000 | < 200 | CN1Cc2ccc(Nc3ncc4cc(C(F)F)cc(N5CC6(CN(C)C6)C5)c4n3)cc2C1 [Example 57, 6-(difluoromethyl)-8-(6-methyl-2,6-diazaspiro[3.3]heptan-2-yl)-N-(2-methylisoindolin-5-yl)quinazolin-2-amine]
 | < 200 | 200 to 500 | > 2000 | 500 to 2000 | 500 to 2000 | < 200 | CN1CCc2cc(Nc3ncc4cc(C(F)F)cc(N5CC6(C5)CN(C5CC5)C6)c4n3)ccc2C1 [Example 79, 8-(6-cyclopropyl-2,6-diazaspiro[3.3]heptan-2-yl)-6-(difluoromethyl)-N-(2-methyl-1,2,3,4-tetrahydroisoquinolin-6-yl)quinazolin-2-amine]
 | < 200 | < 200 | < 200 | 500 to 2000 | 500 to 2000 | < 200 | CS(=O)(=O)N1CCC(Nc2ncc3cc(C(F)F)cc(N4CC5(CCNC5)C4)c3n2)CC1 [Example 63, 6-(difluoromethyl)-N-(1-(methylsulfonyl)piperidin-4-yl)-8-(2,6-diazaspiro[3.4]octan-2-yl)quinazolin-2-amine]
 | < 200 | < 200 | < 200 | 500 to 2000 | 500 to 2000 | < 200 | Cn1ncc2cc(Nc3ncc4cc(C(F)F)cc(N5CC6(CCNC6)C5)c4n3)ccc21 [Example 75, 6-(difluoromethyl)-N-(1-methyl-1H-indazol-5-yl)-8-(2,6-diazaspiro[3.4]octan-2-yl)quinazolin-2-amine]
